# Measured values published in patent publication US20250388542A1, “ANALOGUES OF PENTAMIDINE AND USES THEREFOR” (Auransa Inc., priority 2018, published 2025).
# “Also recorded” adds a separate entry of the source.
# Columns and labels:
# [1] = test system: COLO 205-Luc colon cancer tumor cells; test: Colon orthotopic in vivo study; settings: for Body weight (mean ± SEM): in g (unit assumed)
# Method: Approximately 2.0× Luciferase stably expressing colon cancer tumor cells (COLO 205-Luc) cells suspended in 30 μl of DPBS were injected into cecum wall of BALB/c nude mice.
# The animals were assigned into groups using an Excel-based randomization software performing stratified randomization based upon their bioluminescence intensity. Treatment was initiated according to the predetermined regimen as shown in the experimental design table.
# Mice were administered compound 1 at 10 mg/k daily, 20 mg/kg daily, 10 mg/kg twice daily, 20 mg/kg twice daily, or 40 mg/kg daily.
# The major efficacy endpoint was bioluminescence (intensity values and change from baseline). The surgically inoculated mice were weighed and intraperitoneally administered luciferin at a dose of 150 mg/kg. Ten minutes after the luciferin injection, the animals were pre-anesthetized with the mixture gas of oxygen and isoflurane. When the animals were in a complete anesthetic state, the mice were moved into the imaging chamber for bioluminescence measurements with an IVIS (Lumina II) imaging system. The bioluminescence of the whole animal body, including primary and metastatic tumors, was measured and recorded once per week.
# Tumor Growth Inhibition (TGI) was calculated for each group using the formula: TGI (%)=[1−(Ti−T0)/(Vi−V0)]×100; Ti is the average tumor bioluminescence value of a treatment group on a given day, T0 is the average tumor bioluminescence value of the treatment group on day 0, Vi is the average tumor bioluminescence value of the vehicle control group on the same day with Ti, and V0 is the average tumor bioluminescence value of the vehicle group on day 0.
# For comparison among three or more groups, a one-way ANOVA was performed. When a non-significant F-statistics (a ratio of treatment variance to the error variance) was obtained, comparisons between groups were carried out with Dunnett t(2-sided). All data were analyzed using SPSS 17.0. p<0.05 is considered to be statistically significant.
# HCC1954 = test: CellTiter-Glo cytotoxicity, cancer cell line panel / breast cancer study; format: cell-based; settings: Homo sapiens; HCC1954, Ductal breast carcinoma
# Method: (§1) The objective of this study is to investigate potential cell killing effect of Compounds 1-15 on 3 cancer cell lines. 50% inhibition concentration (IC50) was determined for these compounds in various cancer cell lines using CellTiter-Glo™ luminescent cell viability assay at different compound concentrations. Each cell line (e.g., NCI-H209; NCI-H69; and SW1271) was treated with Compounds 1-15 and culture medium contains 0.2% [v/v] DMSO vehicle control. All the cells were cultured in the media supplemented with 10-20% fetal bovine serum at 37° C., 5% CO2 and 95% humidity.
# (§2) The objective of this study is to investigate the effect of Compound 1 on cytotoxicity against 61 different types of cancer cell lines. IC50 were values were obtained using CellTiter-Glo™ as described above. Each cell line shown in Table 3 was treated with Compound 1, a standard chemotherapy drug, cisplatin, as reference control and culture medium contains 0.2% [v/v] DMSO vehicle control. All cancer cell lines were cultured in media supplemented with 10-20% fetal bovine serum at 37° C., 5% CO2 and 95% humidity.
# (§3) The objective of this study is to investigate the effect of Compound 1 on cell viability of various types of breast cancer. Four different breast cancer cell lines were employed in the study. Each cell line shown in Table 5 was treated with Compound 1 and standard of care (cisplatin) and culture medium contains 0.2% [v/v] DMSO vehicle control and IC50 values were obtained as described above. The raw data values from the CellTiter-Glo™ cell viability assay expressed in relative luminescence units were normalized to the vehicle for each individual plate, and any reduction in luminescence indicated a decrease in viability (%). The data was analyzed in GraphPad PRISM using a non-linear sigmoidal plot with variable slope (asymmetric four-point linear regression), and an IC50 value for each compound was generated. The experiment tested pentamidine, compound 1, and standard-of-care control Cisplatin in full growth media for 8 days. Cells were initially treated with the test compounds on Day 0, and the cells were then replenished with fresh compound dilutions on Day 3. Pentamidine, Compound 1, and cisplatin were tested at 9 concentration points; 100, 33.33, 11.11, 3.70, 1.23, 0.41, 0.14, 0.05, and 0.02 μM (final DMSO concentration=0.5%).
# MCF7 = test: as above; format: cell-based; settings: Homo sapiens; MCF7, Invasive ductal carcinoma
# Method: as §1, §2, §3
# ZR-75-1 = test: as above; format: cell-based; settings: Homo sapiens; ZR-75-1, Invasive ductal carcinoma
# Method: as §1, §2, §3
# DU4475 = test: as above; format: cell-based; settings: Homo sapiens, DU-4475; DU4475, Breast carcinoma
# Method: as §1, §2, §3
# Human microsomal CL rate = format: in vitro ADME; settings: human microsomes
# [2] = Tolerance in non-tumor bearing BALB/c nude mice; format: in vivo
# Method: The objective of this research is to assess Compound 1 tolerance in non-tumor bearing mice in BALB/c nude mice. Compound 1 exposure in plasma, liver, kidney, colon and bladder as well as serum-derived blood chemistries were tested.
# Thirty-six (36) female BALB/c nude mice of age 6-8 weeks having body weight of around 19-23 g were kept in individual ventilation cages at constant temperature (20˜26° C.) and humidity (40-70%) with 3 animals per cage. Animals had free access to irradiation sterilized dry granule food and sterile drinking water during the entire study period.
# After grouping, the animals were checked daily for morbidity and mortality. At the time of routine monitoring, the animals were measured for any effects on behavior such as mobility, food and water consumption, body weight gain/loss. Body weights were measured daily. Death and other clinical signs were recorded.
# Animals from each group were tested and samples collected at two different time points for blood chemistry tests as well as compound concentration in plasma, kidney, liver, colon and bladder. The first sampling was performed right before the last dose (0 h) on Day 21; and the second sampling was performed 1 hour after the last dose (1 h) on day 21. Detailed descriptions for sampling methods are as follows: […]
# [3] = 10 mg/kg, BID, day 0 after the start of treatment
# [4] = 10 mg/kg, QD, day 0 after the start of treatment
# [5] = 20 mg/kg, BID, day 0 after the start of treatment
# [6] = 20 mg/kg, QD, day 0 after the start of treatment
# [7] = 40 mg/kg, QD, day 0 after the start of treatment
structure (smiles),measurement,setting,value
"N=C(N)c1ccc(OCCCCCOc2ccc(C(=N)N)nc2)cc1 [Compound 1, 5-(5-(4-carbamimidoylphenoxy)pentyloxy)picolinimidamide]",Relative bioluminescence (mean ± SEM),[1]; [3],100 ± 0%
same,Body weight (mean ± SEM),[1]; [3],21.0 ± 0.4
same,Body weight (mean ± SEM),"[1]; 10 mg/kg, BID, day 3",21.2 ± 0.4
same,Relative bioluminescence (mean ± SEM),"[1]; 10 mg/kg, BID, day 7",447 ± 103%
same,Body weight (mean ± SEM),"[1]; 10 mg/kg, BID, day 7",21.2 ± 0.4
same,Body weight (mean ± SEM),"[1]; 10 mg/kg, BID, day 10",21.2 ± 0.3
same,Relative bioluminescence (mean ± SEM),"[1]; 10 mg/kg, BID, day 14",1033 ± 385%
same,Body weight (mean ± SEM),"[1]; 10 mg/kg, BID, day 14",21.8 ± 0.4
same,Body weight (mean ± SEM),"[1]; 10 mg/kg, BID, day 17",22.1 ± 0.4
same,Relative bioluminescence (mean ± SEM),"[1]; 10 mg/kg, BID, day 22",2993 ± 1325%
same,Body weight (mean ± SEM),"[1]; 10 mg/kg, BID, day 22",21.2 ± 0.4
same,Body weight (mean ± SEM),"[1]; 10 mg/kg, BID, day 24",21.5 ± 0.3
same,Relative bioluminescence (mean ± SEM),"[1]; 10 mg/kg, BID, day 28",2715 ± 950%
same,Body weight (mean ± SEM),"[1]; 10 mg/kg, BID, day 28",22.0 ± 0.3
same,Relative bioluminescence (mean ± SEM),[1]; [4],100 ± 0%
same,Body weight (mean ± SEM),[1]; [4],20.9 ± 0.5
same,Body weight (mean ± SEM),"[1]; 10 mg/kg, QD, day 3",21.4 ± 0.5
same,Relative bioluminescence (mean ± SEM),"[1]; 10 mg/kg, QD, day 7",351 ± 88%
same,Body weight (mean ± SEM),"[1]; 10 mg/kg, QD, day 7",21.6 ± 0.5
same,Body weight (mean ± SEM),"[1]; 10 mg/kg, QD, day 10",21.5 ± 0.4
same,Relative bioluminescence (mean ± SEM),"[1]; 10 mg/kg, QD, day 14",1425 ± 930%
same,Body weight (mean ± SEM),"[1]; 10 mg/kg, QD, day 14",21.7 ± 0.4
same,Body weight (mean ± SEM),"[1]; 10 mg/kg, QD, day 17",21.7 ± 0.4
same,Relative bioluminescence (mean ± SEM),"[1]; 10 mg/kg, QD, day 22",2819 ± 1388%
same,Body weight (mean ± SEM),"[1]; 10 mg/kg, QD, day 22",21.7 ± 0.5
same,Body weight (mean ± SEM),"[1]; 10 mg/kg, QD, day 24",22.2 ± 0.6
same,Relative bioluminescence (mean ± SEM),"[1]; 10 mg/kg, QD, day 28",3171 ± 1602%
same,Body weight (mean ± SEM),"[1]; 10 mg/kg, QD, day 28",22.6 ± 0.5
same,reducing tumor growth,[1]; 20 mg/kg or 40 mg/kg daily,non-statistically significant trend
same,Relative bioluminescence (mean ± SEM),[1]; [5],100 ± 0%
same,Body weight (mean ± SEM),[1]; [5],20.9 ± 0.5
same,Body weight (mean ± SEM),"[1]; 20 mg/kg, BID, day 3",20.9 ± 0.5
same,Relative bioluminescence (mean ± SEM),"[1]; 20 mg/kg, BID, day 7",299 ± 91%
same,Body weight (mean ± SEM),"[1]; 20 mg/kg, BID, day 7",21.1 ± 0.5
same,Body weight (mean ± SEM),"[1]; 20 mg/kg, BID, day 10",21.1 ± 0.5
same,Relative bioluminescence (mean ± SEM),"[1]; 20 mg/kg, BID, day 14",1108 ± 433%
same,Body weight (mean ± SEM),"[1]; 20 mg/kg, BID, day 14",21.5 ± 0.6
same,Body weight (mean ± SEM),"[1]; 20 mg/kg, BID, day 17",21.6 ± 0.6
same,Relative bioluminescence (mean ± SEM),"[1]; 20 mg/kg, BID, day 22",2340 ± 1230%
same,Body weight (mean ± SEM),"[1]; 20 mg/kg, BID, day 22",20.9 ± 0.5
same,Body weight (mean ± SEM),"[1]; 20 mg/kg, BID, day 24",21.3 ± 0.5
same,Relative bioluminescence (mean ± SEM),"[1]; 20 mg/kg, BID, day 28",1877 ± 1076%
same,Body weight (mean ± SEM),"[1]; 20 mg/kg, BID, day 28",21.7 ± 0.5
same,Relative bioluminescence (mean ± SEM),[1]; [6],100 ± 0%
same,Body weight (mean ± SEM),[1]; [6],20.8 ± 0.4
same,Body weight (mean ± SEM),"[1]; 20 mg/kg, QD, day 3",20.8 ± 0.3
same,Relative bioluminescence (mean ± SEM),"[1]; 20 mg/kg, QD, day 7",171 ± 46%
same,Body weight (mean ± SEM),"[1]; 20 mg/kg, QD, day 7",20.8 ± 0.4
same,Body weight (mean ± SEM),"[1]; 20 mg/kg, QD, day 10",21.0 ± 0.3
same,Relative bioluminescence (mean ± SEM),"[1]; 20 mg/kg, QD, day 14",817 ± 269%
same,Body weight (mean ± SEM),"[1]; 20 mg/kg, QD, day 14",21.2 ± 0.3
same,Body weight (mean ± SEM),"[1]; 20 mg/kg, QD, day 17",21.3 ± 0.4
same,Relative bioluminescence (mean ± SEM),"[1]; 20 mg/kg, QD, day 22",923 ± 354%
same,Body weight (mean ± SEM),"[1]; 20 mg/kg, QD, day 22",21.1 ± 0.4
same,Body weight (mean ± SEM),"[1]; 20 mg/kg, QD, day 24",21.6 ± 0.3
same,Relative bioluminescence (mean ± SEM),"[1]; 20 mg/kg, QD, day 28",1613 ± 1022%
same,Body weight (mean ± SEM),"[1]; 20 mg/kg, QD, day 28",21.5 ± 0.4
same,Relative bioluminescence (mean ± SEM),[1]; [7],100 ± 0%
same,Body weight (mean ± SEM),[1]; [7],20.7 ± 0.5
same,Body weight (mean ± SEM),"[1]; 40 mg/kg, QD, day 3",20.7 ± 0.5
same,Relative bioluminescence (mean ± SEM),"[1]; 40 mg/kg, QD, day 7",210 ± 57%
same,Body weight (mean ± SEM),"[1]; 40 mg/kg, QD, day 7",20.2 ± 0.4
same,Body weight (mean ± SEM),"[1]; 40 mg/kg, QD, day 10",20.3 ± 0.5
same,Relative bioluminescence (mean ± SEM),"[1]; 40 mg/kg, QD, day 14",357 ± 109%
same,Body weight (mean ± SEM),"[1]; 40 mg/kg, QD, day 14",20.5 ± 0.5
same,Body weight (mean ± SEM),"[1]; 40 mg/kg, QD, day 17",20.5 ± 0.5
same,Relative bioluminescence (mean ± SEM),"[1]; 40 mg/kg, QD, day 22",525 ± 145%
same,Body weight (mean ± SEM),"[1]; 40 mg/kg, QD, day 22",20.4 ± 0.5
same,Body weight (mean ± SEM),"[1]; 40 mg/kg, QD, day 24",21.0 ± 0.5
same,Relative bioluminescence (mean ± SEM),"[1]; 40 mg/kg, QD, day 28",512 ± 206%
same,Body weight (mean ± SEM),"[1]; 40 mg/kg, QD, day 28",21.3 ± 0.5
same,body weight loss as indirect measure of toxicity,"[1]; all dose groups 10-40 mg/kg QD, 10-20 mg/kg BID",No groups lost weight obviously
same,toxicity / tolerability,"[1]; tumor-bearing BALB/c nude mice, all dose groups",no obvious toxicity; also recorded: does not have significant toxicity and is well tolerated
same,IC50,HCC1954,2.71 µM
same,IC50,MCF7,0.93 µM
same,IC50,ZR-75-1,1.32 µM
same,IC50,DU4475,0.24 µM
same,microsomal CLint,Human microsomal CL rate,13.6 µL/min/mg
same,"tolerability, body weight loss","[2]; 5 mg/kg QD, 10 mg/kg QD, 10 mg/kg Q2D and 20 mg/kg QD, PO, 21 days",well tolerated with no obvious body weight loss
same,body weights compared with vehicle control group,"[2]; 40 mg/kg QD PO, day 20 and 21",lower in a statistically significant manner at day 20 and 21
